Data as given in patent US4457865A, “Sialic acid specific slug lectin” (Research Corporation, priority 1982, dated 1984).
Where two headings read alike, the source gives them in different places.

Tests used:
[1] = test system: purified LFA (sialic acid specific slug lectin); test: Inhibition of hemagglutination by purified LFA; type: cell-based, Limax flavus; conditions: for Inhibition (%) Purified LFA: 0.34 μg purified LFA per assay; for IC50: read-out: Concentration giving 50% inhibition of hemagglutination, affinity purified LFA; for Ability to inhibit hemagglutination by purified slug lectin (in words): some 17 carbohydrates tested, concentrations as high as 10-25 mM
Description: (§1) Hemagglutination Assay: Aliquots of lectin were adjusted to 0.5 ml by addition of tris-saline buffer which contained 0.4 mg/ml gelatin. To this was added 0.5 ml of a solution containing human erythrocytes that had been washed several times with 0.9% NaCl and whose absorbance at 620 nm was ~2. After standing at room temperature for 30 min. the cells were gently pelleted by centrifugation in a Dynac centrifuge. The cells were resuspended by shaking and allowed to stand for 5 min. in order to permit aggregating cells to settle. The absorbance at 620 nm of the upper one-half ml of the erythrocyte suspension was measured and the data were plotted as A620 versus μg or μl of lectin. One unit of activity is defined as the amount of LFA which gave a 50% agglutination. Percent agglutination was calculated as follows: [formula]
(§2) A 0.5 ml aliquot of erythrocytes was added to the lectin plus inhibitor solution and the percent agglutination determined as described above. The percent inhibition of agglutination represents the difference between the percent agglutination with lectin alone and that obtained with lectin plus inhibitor.

[2] = test system: AS-40-80 fraction (partially purified LFA); test: Inhibition of hemagglutination by partially purified LFA (AS-40-80 fraction); type: cell-based, Limax flavus; conditions: for Inhibition (%) AS-40-80 Fraction: 20 μg protein of AS-40-80 per assay
Description: as §1, §2

slug lectin = test: Double diffusion of slug lectin in agar gel against sialoproteins; type: binding, Limax flavus

## OC[C@H]1OC(O)[C@H](O)[C@@H](O)[C@H]1O (single isomer, unassigned) [D (+) Galactose]
[1]; carbohydrate 25.0 mM
  Inhibition (%) Purified LFA: 0%
[2]; carbohydrate 25.0 mM
  Inhibition (%) AS-40-80 Fraction: 0%

## OC[C@H]1OC(O)[C@@H](O)[C@@H](O)[C@@H]1O (single isomer, unassigned) [D (+) Mannose]
[1]; carbohydrate 25.0 mM
  Inhibition (%) Purified LFA: 0%
[2]; carbohydrate 25.0 mM
  Inhibition (%) AS-40-80 Fraction: 0%

## OC1OC[C@@H](O)[C@H](O)[C@H]1O (single isomer, unassigned) [D (+) Xylose]
[1]; carbohydrate 25.0 mM
  Inhibition (%) Purified LFA: 0%
[2]; carbohydrate 25.0 mM
  Inhibition (%) AS-40-80 Fraction: 0%

## OC[C@H]1OC(O)[C@H](O)[C@@H](O)[C@@H]1O (single isomer, unassigned) [D (-) Glucose]
[1]; carbohydrate 25.0 mM
  Inhibition (%) Purified LFA: 0%
[2]; carbohydrate 25.0 mM
  Inhibition (%) AS-40-80 Fraction: 0%

## O=C(O)[C@H]1OC(O)[C@H](O)[C@@H](O)[C@@H]1O (single isomer, unassigned) [D (-) Glucuronic Acid]
[1]; carbohydrate 25.0 mM
  Inhibition (%) Purified LFA: 0%
[2]; carbohydrate 25.0 mM
  Inhibition (%) AS-40-80 Fraction: 0%

## N[C@H]1C(O)O[C@H](CO)[C@H](O)[C@@H]1O (stereo partly drawn) [Galactosamine]
[1]; carbohydrate 25.0 mM
  Inhibition (%) Purified LFA: 0%
[2]
  Inhibition of hemagglutination by the 40-80% ammonium sulfate fraction (in words): inhibition of hemagglutination
[2]; carbohydrate 25.0 mM
  Inhibition (%) AS-40-80 Fraction: 45%

## N[C@H]1C(O)O[C@H](CO)[C@@H](O)[C@@H]1O (stereo partly drawn) [Glucosamine]
[1]; carbohydrate 25.0 mM
  Inhibition (%) Purified LFA: 0%
[2]
  Inhibition of hemagglutination by the 40-80% ammonium sulfate fraction (in words): inhibition of hemagglutination
[2]; carbohydrate 25.0 mM
  Inhibition (%) AS-40-80 Fraction: 19%

## OC[C@H]1O[C@@H](O[C@H]2[C@H](O)[C@@H](O)C(O)O[C@@H]2CO)[C@H](O)[C@@H](O)[C@H]1O (stereo partly drawn) [Lactose]
[1]; carbohydrate 25.0 mM
  Inhibition (%) Purified LFA: 0%
[2]; carbohydrate 25.0 mM
  Inhibition (%) AS-40-80 Fraction: 0%

## CC(=O)N[C@H]1C(O)O[C@H](CO)[C@H](O)[C@@H]1O (stereo partly drawn) [N--Acetyl-D-Galactosamine]
[1]; carbohydrate 10.0 mM
  Inhibition (%) Purified LFA: 0%
[2]
  Inhibition of hemagglutination by the 40-80% ammonium sulfate fraction (in words): inhibition of hemagglutination
[2]; carbohydrate 10.0 mM
  Inhibition (%) AS-40-80 Fraction: 75%

## CC(=O)N[C@H]1C(O)O[C@H](CO)[C@@H](O)[C@@H]1O (stereo partly drawn) [N--Acetyl-D-Glucosamine]
[1]; carbohydrate 10.0 mM
  Inhibition (%) Purified LFA: 0%
[2]
  Inhibition of hemagglutination by the 40-80% ammonium sulfate fraction (in words): inhibition of hemagglutination
[2]; carbohydrate 10.0 mM
  Inhibition (%) AS-40-80 Fraction: 53%

## CC(=O)N[C@H]1[C@H]([C@H](O)[C@H](O)CO)OC(O)(C(=O)O)C[C@@H]1O (stereo partly drawn) [N--Acetylneuraminic Acid, N-acetylneuraminic acid]
[1]; carbohydrate .05 mM
  Inhibition (%) Purified LFA: 1%
[1]; carbohydrate .10 mM
  Inhibition (%) Purified LFA: 28%
[1]; carbohydrate .15 mM
  Inhibition (%) Purified LFA: 54%
[1]; carbohydrate .20 mM
  Inhibition (%) Purified LFA: 100%
[1]
  IC50: 130 µM
  Ability to inhibit hemagglutination by purified slug lectin (in words): effective
[2]
  Inhibition of hemagglutination by the 40-80% ammonium sulfate fraction (in words): inhibition of hemagglutination
[2]; carbohydrate .05 mM
  Inhibition (%) AS-40-80 Fraction: 6%
[2]; carbohydrate .10 mM
  Inhibition (%) AS-40-80 Fraction: 17%
[2]; carbohydrate .15 mM
  Inhibition (%) AS-40-80 Fraction: 27%
[2]; carbohydrate .20 mM
  Inhibition (%) AS-40-80 Fraction: 94%

## O=C(CO)N[C@H]1[C@H]([C@H](O)[C@H](O)CO)OC(O)(C(=O)O)C[C@@H]1O (stereo partly drawn) [N--Glycolyneuraminic Acid, N-glycolylneuraminic acid]
[1]; carbohydrate 1.0 mM
  Inhibition (%) Purified LFA: 85%
[1]; carbohydrate .25 mM
  Inhibition (%) Purified LFA: 0%
[1]; carbohydrate .50 mM
  Inhibition (%) Purified LFA: 2%
[1]; carbohydrate .75 mM
  Inhibition (%) Purified LFA: 14%
[1]
  IC50: 900 µM
  Ability to inhibit hemagglutination by purified slug lectin (in words): effective
[1]; listed as GlyNeu
  IC50: 810 µM
[2]
  Inhibition of hemagglutination by the 40-80% ammonium sulfate fraction (in words): inhibition of hemagglutination
[2]; carbohydrate 1.0 mM
  Inhibition (%) AS-40-80 Fraction: 88%
[2]; carbohydrate .25 mM
  Inhibition (%) AS-40-80 Fraction: 3%
[2]; carbohydrate .50 mM
  Inhibition (%) AS-40-80 Fraction: 20%
[2]; carbohydrate .75 mM
  Inhibition (%) AS-40-80 Fraction: 56%

## OC[C@H]1O[C@@](CO)(O[C@H]2O[C@H](CO)[C@@H](O)[C@H](O)[C@H]2O)[C@@H](O)[C@@H]1O [Sucrose]
[1]; carbohydrate 25.0 mM
  Inhibition (%) Purified LFA: 0%
[2]; carbohydrate 25.0 mM
  Inhibition (%) AS-40-80 Fraction: 0%

## O[C@@H]1[C@@H](O)[C@@H](O)CO[C@H]1O [α (+) Arabinose]
[1]; carbohydrate 25.0 mM
  Inhibition (%) Purified LFA: 0%
[2]; carbohydrate 25.0 mM
  Inhibition (%) AS-40-80 Fraction: 0%

## C[C@@H]1O[C@@H](O)[C@@H](O)[C@H](O)[C@@H]1O [α-L(-) Fucose]
[1]; carbohydrate 25.0 mM
  Inhibition (%) Purified LFA: 0%
[2]; carbohydrate 25.0 mM
  Inhibition (%) AS-40-80 Fraction: 0%

## CO[C@H]1O[C@H](CO)[C@@H](O)[C@H](O)[C@H]1O [α-Methyl-D-Glucoside]
[1]; carbohydrate 25.0 mM
  Inhibition (%) Purified LFA: 0%
[2]; carbohydrate 25.0 mM
  Inhibition (%) AS-40-80 Fraction: 0%

## CO[C@H]1O[C@H](CO)[C@@H](O)[C@H](O)[C@@H]1O [α-Methyl-D-Mannose]
[1]; carbohydrate 25.0 mM
  Inhibition (%) Purified LFA: 0%
[2]; carbohydrate 25.0 mM
  Inhibition (%) AS-40-80 Fraction: 0%

B1: fetuin: sialoprotein, highly purified bovine fetuin (protein, UniProt P12763 19-359, looked up)
Alpha-2-HS-glycoprotein: IPLDPVAGYKEPACDDPDTEQAALAAVDYINKHLPRGYKHTLNQIDSVKVWPRRPTGEVYDIEIDTLETTCHVLDPTPLANCSVRQQTQHAVEGDCDIHVLKQDGQFSVLFTKCDSSPDSAEDVRKLCPDCPLLAPLNDSRVVHAVEVALATFNAESNGSYLQLVEISRAQFVPLPVSVSVEFAVAATDCIAKEVVDPTKCNLLAEKQYGFCKGSVIQKALGGEDVRVTCTLFQTQPVIPQPQPDGAEAEAPSAVPDAAGPTPSAAGPPVASVVVGPSVVAVPLPLHRAHYDLRHTFSGVASVESSSGEAFHVGKTPIVGQPSIPGGPVRLCPGRIRYFKI
[1]; after incubation at 80° for one hour in 0.1N H2SO4
  Inhibitory activity on slug lectin hemagglutination after asialylation: complete loss of inhibitory activity
Slug lectin; asialylated sialoprotein
  Precipitin lines in double diffusion against slug lectin after asialylation: lost
Slug lectin; native sialoprotein
  Precipitin lines in double diffusion against slug lectin: yielded precipitin lines
